These results are taken from patent US20250145633A1, “SUBSTITUTED FURANOPYRIMIDINE COMPOUNDS AS PDE1 INHIBITORS” (Dart NeuroScience, LLC, priority 2017, published 2025).

One test has as its target human PDE1B enzyme (Homo sapiens (Human), UniProt Q01064). The experiment in a line: IMAP TR-FRET PDE1B enzymatic assay. It counts as biochemical. As to conditions: negative log of half-maximal molar inhibitory concentration; 200 nM FAM-cAMP; values given as bins. The protocol:
PDE1B inhibition was determined by an IMAP TR-FRET assay. The IMAP TR-FRET PDE assay was optimized for concentration of enzyme, Calmodulin, cAMP or cGMP substrate, DMSO tolerance, and incubation time.
Into each well of a solid white 1536 well plate (Corning) was dispensed 250 pg full-length recombinant NH-terminal GST tagged human PDE1B enzyme (BPS Bioscience Cat #60011, San Diego, CA) in 2.5 μL IMAP BSA reaction buffer (Molecular Devices, Sunnyvale, CA) containing 10 U/ml Calmodulin and 2.5 mM CaCl2) (Sigma Aldrich.) After a brief centrifugation, 30 nL of compound was added by transfer from 1 mM stock in DMSO using a Kalypsys 1536 Pintool. Plates were incubated for 5 minutes at room temperature before dispensing 1.5 μL of 533 nM 5-carboxy fluorescein (FAM)-labeled cAMP (Molecular Devices, Sunnyvale, CA) for a final concentration of 200 nM. After a brief centrifugation, the plates were incubated for 30 minutes at room temperature. The assay was terminated by adding 5 μL IMAP binding reagent/Tb complex (Molecular Devices, Sunnyvale, CA) to each well.
Plates were incubated for 1 hour at room temperature and were read on a Viewlux multimode plate reader (Perkin Elmer). The instrument was set to excite using the DUG11 filter and measure using 490/10 nm and 520/10 nm filters. Ratios of acceptor and donor were then calculated.
For IC50 calculations, the values of % efficacy versus a series of compound concentrations were then plotted using non-linear regression analysis of sigmoidal dose-response curves generated with the equation Y=[B+(T−B)]/[1+10((Log EC50−X)×Hill Slope)], where Y=percent activity, B=minimum percent efficacy, T=maximum percent efficacy, X=logarithm of compound and Hill Slope=slope factor or Hill coefficient. The IC50 value was determined by the concentration causing a half-maximal percent efficacy.
Background: TR-FRET usually uses a lanthanide donor and a delayed reading to cut background.
Take `Cc1oc2ncnc(NC3(C)CC3)c2c1C(=O)N1CCN(c2ccccn2)CC1` [Example 42, 6-Methyl-N-(1-methylcyclopropyl)-5-[4-(pyridin-2-yl)piperazine-1-carbonyl]furo[2,3-d]pyrimidin-4-amine]: the “PDE1b (pIC50)” value is above 8.

As to `Cc1oc2ncnc(NC3(C)CC3)c2c1C(=O)N1CCN(c2ccc(F)cn2)CC1` [Example 43, 5-[4-(5-Fluoropyridin-2-yl)piperazine-1-carbonyl]-6-methyl-N-(1-methylcyclopropyl)furo[2,3-d]pyrimidin-4-amine], the “PDE1b (pIC50)” value is listed as above 8.

On to `Cc1ccc(N2CCN(C(=O)c3c(C)oc4ncnc(NC5(C)CC5)c34)CC2)nc1` [Example 44, 6-Methyl-N-(1-methylcyclopropyl)-5-[4-(5-methylpyridin-2-yl)piperazine-1-carbonyl]furo[2,3-d]pyrimidin-4-amine], for which the “PDE1b (pIC50)” value is above 8.

With `Cc1oc2ncnc(NC3(C)CC3)c2c1C(=O)N1CCN(c2ccc(C#N)cc2)CC1` [Example 47, 4-(4-{6-Methyl-4-[(1-methylcyclopropyl)amino]furo[2,3-d]pyrimidine-5-carbonyl}piperazin-1-yl)benzonitrile], the “PDE1b (pIC50)” value is listed as above 8.

Regarding `Cc1oc2ncnc(NC3(C)CC3)c2c1C(=O)NC(C)c1ccc(F)cn1` (centres unmarked) [Example 51, N-[1-(5-Fluoropyridin-2-yl)ethyl]-6-methyl-4-[(1-methylcyclopropyl)amino]furo[2,3-d]pyrimidine-5-carboxamide], the “PDE1b (pIC50)” value is recorded as above 8.

Consider `COc1ccc(CNC(=O)c2c(C)oc3ncnc(NC4(C)CC4)c23)cn1` [Example 54, N-[(6-Methoxypyridin-3-yl)methyl]-6-methyl-4-[(1-methylcyclopropyl)amino]furo[2,3-d]pyrimidine-5-carboxamide], for which the “PDE1b (pIC50)” value was above 8.

Regarding `COc1ccc(CNC(=O)c2c(C)oc3ncnc(NC4(C)CC4)c23)nc1` [Example 55, N-[(5-Methoxypyridin-2-yl)methyl]-6-methyl-4-[(1-methylcyclopropyl)amino]furo[2,3-d]pyrimidine-5-carboxamide], the “PDE1b (pIC50)” value was above 8.

With `Cc1oc2ncnc(NC3(C)CC3)c2c1C(=O)N1CC(c2ccc(F)cc2)C1` [Example 56, 5-[3-(4-Fluorophenyl)azetidine-1-carbonyl]-6-methyl-N-(1-methylcyclopropyl)furo[2,3-d]pyrimidin-4-amine], the “PDE1b (pIC50)” value was above 8.

On to `Cc1oc2ncnc(NC3(C)CC3)c2c1C(=O)N1CCC(c2ccc(F)cc2)C1` (centres unmarked) [Example 57, 5-[3-(4-Fluorophenyl)pyrrolidine-1-carbonyl]-6-methyl-N-(1-methylcyclopropyl)furo[2,3-d]pyrimidin-4-amine], for which the “PDE1b (pIC50)” value is recorded as above 8.

`Cc1oc2ncnc(NC3(C)CC3)c2c1C(=O)NCc1ccc(OC(F)F)cn1` [Example 59, N-{[5-(Difluoromethoxy)pyridin-2-yl]methyl}-6-methyl-4-[(1-methylcyclopropyl)amino]furo[2,3-d]pyrimidine-5-carboxamide]: the “PDE1b (pIC50)” value was above 8.

Consider `Cc1oc2ncnc(NC3(C)CC3)c2c1C(=O)N1CCC(c2ccc(F)cc2)CC1` [Example 60, 5-[4-(4-Fluorophenyl)piperidine-1-carbonyl]-6-methyl-N-(1-methylcyclopropyl)furo[2,3-d]pyrimidin-4-amine], for which the “PDE1b (pIC50)” value is given as above 8.

With `Cc1oc2ncnc(NC3(C)CC3)c2c1C(=O)N1CCN(c2ccc(F)cc2)CC1` [Example 61, 5-[4-(4-Fluorophenyl)piperazine-1-carbonyl]-6-methyl-N-(1-methylcyclopropyl)furo[2,3-d]pyrimidin-4-amine], the “PDE1b (pIC50)” value is recorded as above 8.

With `Cc1oc2ncnc(NC3(C)CC3)c2c1C(=O)N1CCC(F)(c2ccccn2)CC1` [Example 62, 5-[4-Fluoro-4-(pyridin-2-yl)piperidine-1-carbonyl]-6-methyl-N-(1-methylcyclopropyl)furo[2,3-d]pyrimidin-4-amine], the “PDE1b (pIC50)” value is on record as above 8.

Take `Cc1oc2ncnc(NC3(C)CC3)c2c1C(=O)N1CCC(O)(c2ccc(F)cc2)CC1` [Example 63, 4-(4-Fluorophenyl)-1-{6-methyl-4-[(1-methylcyclopropyl)amino]furo[2,3-d]pyrimidine-5-carbonyl}piperidin-4-ol]: the “PDE1b (pIC50)” value is reported as above 8.

On to `Cc1oc2ncnc(NC3(C)CC3)c2c1C(=O)NCc1cccc(C#N)c1` [Example 66, N-[(3-Cyanophenyl)methyl]-6-methyl-4-[(1-methylcyclopropyl)amino]furo[2,3-d]pyrimidine-5-carboxamide], for which the “PDE1b (pIC50)” value was above 8.

As for `Cc1oc2ncnc(NC3(C)CC3)c2c1C(=O)N1CCC(O)(c2ccc(F)cc2)C1` (centres unmarked) [Example 67, 3-(4-Fluorophenyl)-1-{6-methyl-4-[(1-methylcyclopropyl)amino]furo[2,3-d]pyrimidine-5-carbonyl}pyrrolidin-3-ol], the “PDE1b (pIC50)” value is above 8.

Turning to `Cc1oc2ncnc(NC3(C)CC3)c2c1C(=O)NC1(c2ccc(F)cc2)CC1` [Example 69, N-[1-(4-Fluorophenyl)cyclopropyl]-6-methyl-4-[(1-methylcyclopropyl)amino]furo[2,3-d]pyrimidine-5-carboxamide], the “PDE1b (pIC50)” value is above 8.

Still in this test, the particulars now being: negative log of half-maximal molar inhibitory concentration; 200 nM FAM-cAMP; values given as bins; read-out: PDE1b (pIC50) (converted).
Consider `COc1ncc2c(n1)CCN(C(=O)c1c(C)oc3ncnc(NC4(C)CC4)c13)C2` [Example 45, 5-{2-Methoxy-5H,6H,7H,8H-pyrido[4,3-d]pyrimidine-6-carbonyl}-6-methyl-N-(1-methylcyclopropyl)furo[2,3-d]pyrimidin-4-amine], for which the IC50 was 10 to 100 nM.

Consider `Cc1oc2ncnc(NC3(C)CC3)c2c1C(=O)Nc1ccc(N2CCOCC2)cn1` [Example 46, 6-Methyl-4-[(1-methylcyclopropyl)amino]-N-[5-(morpholin-4-yl)pyridin-2-yl]furo[2,3-d]pyrimidine-5-carboxamide], for which the IC50 is 100 to 1000 nM.

With `Cc1oc2ncnc(NC3(C)CC3)c2c1C(=O)NCc1ccc(F)cc1` [Example 48, N-[(4-Fluorophenyl)methyl]-6-methyl-4-[(1-methylcyclopropyl)amino]furo[2,3-d]pyrimidine-5-carboxamide], the IC50 is 10 to 100 nM.

Take `Cc1oc2ncnc(NC3(C)CC3)c2c1C(=O)NCc1ccc(F)cn1` [Example 49, N-[(5-Fluoropyridin-2-yl)methyl]-6-methyl-4-[(1-methylcyclopropyl)amino]furo[2,3-d]pyrimidine-5-carboxamide]: the IC50 was 10 to 100 nM.

Take `Cc1oc2ncnc(NC3(C)CC3)c2c1C(=O)NCCc1ccc(F)cc1` [Example 50, N-[2-(4-Fluorophenyl)ethyl]-6-methyl-4-[(1-methylcyclopropyl)amino]furo[2,3-d]pyrimidine-5-carboxamide]: the IC50 is 10 to 100 nM.

Regarding `Cc1oc2ncnc(NC3(C)CC3)c2c1C(=O)NCc1ccc(C#N)cc1` [Example 52, N-[(4-Cyanophenyl)methyl]-6-methyl-4-[(1-methylcyclopropyl)amino]furo[2,3-d]pyrimidine-5-carboxamide], the IC50 is 10 to 100 nM.

Consider `COc1cccc(CNC(=O)c2c(C)oc3ncnc(NC4(C)CC4)c23)n1` [Example 53, N-[(6-Methoxypyridin-2-yl)methyl]-6-methyl-4-[(1-methylcyclopropyl)amino]furo[2,3-d]pyrimidine-5-carboxamide], for which the IC50 is 10 to 100 nM.

On to `Cc1oc2ncnc(NC3(C)CC3)c2c1C(=O)N1CCc2cc(C#N)ccc2C1` [Example 58, 2-{6-Methyl-4-[(1-methylcyclopropyl)amino]furo[2,3-d]pyrimidine-5-carbonyl}-1,2,3,4-tetrahydroisoquinoline-6-carbonitrile], for which the IC50 is 10 to 100 nM.

With `Cc1oc2ncnc(NC3(C)CC3)c2c1C(=O)N1CCN(c2ccc(F)c(F)c2)C(=O)C1` [Example 64, 1-(3,4-Difluorophenyl)-4-{6-methyl-4-[(1-methylcyclopropyl)amino]furo[2,3-d]pyrimidine-5-carbonyl}piperazin-2-one], the IC50 is 10 to 100 nM.

As for `Cc1oc2ncnc(NC3(C)CC3)c2c1C(=O)N1C[C@@H]2[C@H](C1)[C@H]2c1ccc(C(F)(F)F)cn1` [Example 65, 6-Methyl-N-(1-methylcyclopropyl)-5-[(1R,5S,6S)-6-[5-(trifluoromethyl)pyridin-2-yl]-3-azabicyclo[3.1.0]hexane-3-carbonyl]furo[2,3-d]pyrimidin-4-amine], the IC50 was 100 to 1000 nM.

Take `Cc1oc2ncnc(NC3(C)CC3)c2c1C(=O)NC(C)c1ccc(F)cc1` (centres unmarked) [Example 68, N-[1-(4-Fluorophenyl)ethyl]-6-methyl-4-[(1-methylcyclopropyl)amino]furo[2,3-d]pyrimidine-5-carboxamide]: the IC50 was 10 to 100 nM.

Turning to `Cc1oc2ncnc(NC3(C)CC3)c2c1C(=O)N1CCC(c2ccccn2)C1` (centres unmarked) [Example 70, 6-Methyl-N-(1-methylcyclopropyl)-5-[3-(pyridin-2-yl)pyrrolidine-1-carbonyl]furo[2,3-d]pyrimidin-4-amine], the IC50 was 10 to 100 nM.
